Where two headings read alike, the source gives them in different places.
How the values were obtained:
[1] = test system: L. amazonensis axenic amastigotes; experiment: Axenic amastigotes assay (resazurin); assay type: cell-based; settings: Leishmania amazonensis, 72 h of culture, table title says 48 h
Procedure: Promastigote forms of L. amazonensis (MHOM/BR/77/LTB0016) were grown to a stationary phase, washed once in phosphate buffer solution (PBS) (pH = 7.4) and adjusted to 5 × 10^6 parasites/mL in Schneider’s medium, supplemented with 20% fetal bovine solution (FBS) pH = 5.5 and maintained at 305K. After 5 days of cultivation, the rounded forms without free flagella were obtained and, after heat shock, were used in the appropriate assays. To evaluate the activity against axenic amastigotes, the parasites were incubated with increasing concentrations of the prototypes (diluted in DMSO) for 72 h at 305K. These assays were performed in triplicate in 96-well flat bottom plates (Falcon Co, Franklin Lakes, USA). The leishmanicidal activity was evaluated by adding 22 μl of resazurin to each well. After 4 h, the cell viability was measured as described above. Calculation of the IC50 values was determined in relation to the control by a sigmoidal model using GraphPad Prism 6.0 software.

[2] = test system: L. amazonensis intracellular amastigotes; experiment: Intracellular amastigotes assay in infected macrophages; assay type: cell-based, Leishmania amazonensis
Procedure: Peritoneal macrophages were obtained BALB/c mice with cold Roswell Park Memorial Institute (RPMI) 1640 medium (Sigma Aldrich, St. Louis, MO, USA) supplemented as above. The cell suspension was adjusted to 1 × 10^6 macrophage/mL and incubated in a LAB-TEK 8-chamber slide (Nunc, Roskilde, Denmark) at 310K and 5% CO2 for 1 h. Non-adherent cells were removed and stationary-phase L. amazonensis promastigotes were added at a 3:1 parasite/macrophage ratio. The cultures were incubated for a further 4 h, and free parasites were removed. The chambers were washed, and the monolayers were incubated with the compounds for 48 h. Infected macrophages incubated only in the culture medium were used as controls to compare with the infected treated macrophages. […] The cultures were fixed in methanol and stained with the hematological system Instant Prov (Newprov®, Curitiba, Brazil). The slides were examined by light microscopy, and the number of infected macrophages and the mean number of parasites per macrophage were determined in 100 cells counted. The experiments were performed twice in triplicate. The percentage of infected macrophages was calculated by dividing the number of infected macrophages by the total number of macrophages (infected and uninfected) counted on the slides, multiplied by 100. To determine the infection index, the percentage of infected macrophages was multiplied by the mean number of parasites per macrophage. The percentage inhibition of infection was calculated by multiplying the difference between the infection index of the control and the compound by 100 and dividing by the infection index (IF) of the control using the Equation (1):IF = % infected cells × amastigotes number/total number of macrophages(1) The IC50 ± SD (SD: standard deviation) values were obtained by a sigmoidal model using Origin 6.0 with statistical error limits up to 10%. All tests were conducted in duplicate for each concentration, and two independent assays were performed.

[3] = molecular target: T1, human serum albumin (HSA) (Homo sapiens, UniProt P02768); experiment: HSA binding, steady-state fluorescence quenching; settings: for KSV Stern-Volmer quenching constant: PBS pH 7.4
T1 construct: purchased Sigma Aldrich, St. Louis, MO, USA
T1 sequence (P02768 25-609): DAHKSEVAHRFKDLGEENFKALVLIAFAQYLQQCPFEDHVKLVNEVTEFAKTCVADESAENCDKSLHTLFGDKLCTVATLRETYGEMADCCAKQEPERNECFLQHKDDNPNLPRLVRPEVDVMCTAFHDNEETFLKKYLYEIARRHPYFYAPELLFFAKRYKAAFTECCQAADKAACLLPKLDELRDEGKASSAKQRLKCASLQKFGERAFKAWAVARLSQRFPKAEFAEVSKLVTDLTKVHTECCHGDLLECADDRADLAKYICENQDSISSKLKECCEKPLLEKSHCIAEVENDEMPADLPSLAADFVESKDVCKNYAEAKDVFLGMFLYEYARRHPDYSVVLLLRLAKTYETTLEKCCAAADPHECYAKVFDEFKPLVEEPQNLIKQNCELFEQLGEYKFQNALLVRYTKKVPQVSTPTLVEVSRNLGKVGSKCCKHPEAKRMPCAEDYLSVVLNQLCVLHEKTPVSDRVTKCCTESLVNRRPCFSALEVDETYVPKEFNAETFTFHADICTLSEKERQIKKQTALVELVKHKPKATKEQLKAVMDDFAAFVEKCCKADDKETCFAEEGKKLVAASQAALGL
Procedure: The chemicals HSA and PBS buffer were purchased from Sigma Aldrich, St. Louis, MO, USA and the pH of buffer solution was checked (pH = 7.40). Jasco J-815 optical spectrometer (Jasco Easton, MD, USA) was used as equipment for steady-state fluorescence and circular dichroism (CD) spectra measurements and a thermostatic cuvette holder Jasco PFD-425S15F (Jasco Easton, MD, USA) was applied for control of temperature in the quartz cell (1.0 cm optical path). All spectra were recorded as the average of three scans with appropriate background corrections. For steady-state fluorescence measurements it was applied 305–450 nm range as emission wavelength (λexc = 295 nm) at 289K, 296K, 303K and 310K. First, it was recorded spectra for HSA solution (1.00 × 10^−5 M, in PBS) and then it was added manually the compound 5e, achieving final ligand concentrations of 0.35; 0.70; 1.05; 1.40; 1.74; 2.09; 2.44; and 2.78 × 10^−5 M.
In order to delete the possible absorption contribution of the compound 5e in the steady-state fluorescence results, inner filter effect was applied, according to the Equation 2 [33]:(2) Fcor=FObs10^[Aex+Aem/2] where Fcor and Fobs are the corrected and observed fluorescence intensity values, while Aex and Aem represent the absorbance value at the excitation (λ = 295 nm: ε = 6,235 cm^−1M^−1 in PBS) and emission wavelengths (λ = 340 nm: ε = 4,550 cm^−1M^−1 in PBS).
The steady-state fluorescence results for the interaction HSA:5e were analyzed according to Stern-Volmer (Equation 3), double logarithmic (Equation 4), van’t Hoff (Equation 5) and Gibbs’ free energy (Equation 6) approximations:(3) F0/F=1+Ksv[Q]=1+kqτ0[Q] (4) log(F0−F/F)=logKa+nlog[Q] (5) lnKa=−ΔH°/RT+ΔS°/R (6) ΔG°=ΔH°−TΔS° where F0 and F are the steady-state fluorescence intensities of HSA in the absence and presence of 5e, respectively. [Q], KSV and kq are the 5e concentration, Stern-Volmer quenching constant and bimolecular quenching rate constant, respectively. τ0 is the experimental fluorescence lifetime of HSA in the absence 5e (5.98 ± 0.15) × 10^−9 s. Ka and ƒ are the binding constant and fraction of the initial fluorescence intensity corresponding to the fluorophore which is accessible by the quencher (f ≈ 1.00), respectively. ΔH°, ΔS° and ΔG° are the enthalpy, entropy and Gibbs’ free energy change, respectively. T and R are the temperature (289 K, 296 K, 303 K and 310 K) and gas constant (8.3145 Jmol^−1K^−1), respectively. All quantitative values were expressed as “± SD” (obtained through three scans).

IC50 [1]: 3.19 ± 1.2 µM
IC50 ([2]; Leishmania amazonensis, Peritoneal macrophage, in Mus musculus, 48 h, L. amazonensis-infected murine peritoneal macrophages, 48 h of culture): 4.47 ± 0.42 µM
n number of binding sites [3]: ~ 1
kq bimolecular quenching rate constant ([3]; 289 K): 4.15e+12 M⁻¹ s⁻¹
n number of binding sites ([3]; 289 K): 1.05 ± 0.01
ΔG° Gibbs' free energy change ([3]; 289 K): −26.1 kJmol^−1
KSV Stern-Volmer quenching constant ([3]; 289 K): 2.48 ± 0.52 ×10^4 M^−1
Kd ([3]; 289 K, double logarithmic approximation, read-out: Ka binding constant (converted)): 19.4 µM
kq bimolecular quenching rate constant ([3]; 296 K): 4.16e+12 M⁻¹ s⁻¹
n number of binding sites ([3]; 296 K): 1.07 ± 0.01
ΔG° Gibbs' free energy change ([3]; 296 K): −26.6 kJmol^−1
KSV Stern-Volmer quenching constant ([3]; 296 K): 2.49 ± 0.50 ×10^4 M^−1
Kd ([3]; 296 K, double logarithmic approximation, read-out: Ka binding constant (converted)): 20.6 µM
kq bimolecular quenching rate constant ([3]; 303 K): 4.34e+12 M⁻¹ s⁻¹
n number of binding sites ([3]; 303 K): 1.06 ± 0.01
ΔG° Gibbs' free energy change ([3]; 303 K): −27.1 kJmol^−1
KSV Stern-Volmer quenching constant ([3]; 303 K): 2.59 ± 0.51 ×10^4 M^−1
Kd ([3]; 303 K, double logarithmic approximation, read-out: Ka binding constant (converted)): 21.9 µM
kq bimolecular quenching rate constant ([3]; 310 K): 4.6e+12 M⁻¹ s⁻¹
n number of binding sites ([3]; 310 K): 1.05 ± 0.01
ΔG° Gibbs' free energy change ([3]; 310 K): −27.6 kJmol^−1
KSV Stern-Volmer quenching constant ([3]; 310 K): 2.75 ± 0.33 ×10^4 M^−1
Kd ([3]; 310 K, double logarithmic approximation, read-out: Ka binding constant (converted)): 22.8 µM
Kd ([3]; all temperatures, read-out: Ka binding constant (order of magnitude)): ~100 µM
decrease of HSA fluorescence emission ([3]; maximum addition of the ligand 2.78 × 10^−5 M, HSA 1.00 × 10^−5 M): about 50%
ΔH° enthalpy change ([3]; van't Hoff plot, 289–310 K): −5.79 ± 0.27 kJmol^−1
ΔS° entropy change ([3]; van't Hoff plot, 289–310 K): 7.02 ± 0.09 ×10^−2 kJmol^−1K^−1
SMILES: NC(=S)N/N=C(\C=C\c1ccc(Cl)cc1)c1ccccc1 [Compound 5e, (1E,2E)-3-(4′-chlorophenyl)-1-phenylprop-2-en-1-one thiosemicarbazone]
Selectivity Index (SI) ([2]; SI = LD50/IC50 intracellular amastigotes): 7.27

— PMC6920794, “Evaluation of Novel Chalcone-Thiosemicarbazones Derivatives as Potential Anti-Leishmania amazonensis Agents and Its HSA Binding Studies” (Biomolecules, 2019)
